Data from ChEMBL document CHEMBL5154749 (Eur J Med Chem, 2022).
Calls of active or inactive are those of the source. The calls are words filed in the database; no cut-off is given here.

Columns and labels:
[1] = tested on: HT-29; test: Induction of apoptosis in human HT-29 cells assessed as early apoptotic cells at 1 uM measured after 48 hrs in presence of AZD1390 by Annexin V-FITC/Propidium iodide staining based flow cytometry analysis (reference value: 3.81%); assay type: functional
[2] = tested on: HT-29; test: Cytotoxicity against ATM proficient human HT-29 cells assessed as reduction in cell viability incubated for 72 hrs by MTT assay; assay type: functional, cell-based; details: dose 0.001-100 µM, DDE = dose-dependent effect
[3] = tested on: A549; test: Antiproliferative activity against ATM proficient human A549 cells assessed as reduction in cell viability incubated for 72 hrs by MTT assay; assay type: functional, cell-based; details: dose 0.001-100 µM, DDE = dose-dependent effect
[4] = tested on: HCT-116; test: Antiproliferative activity against ATM proficient human HCT-116 cells assessed as reduction in cell viability incubated for 72 hrs by MTT assay; assay type: functional, cell-based; details: dose 0.001-100 µM, DDE = dose-dependent effect
[5] = tested on: OVCAR-3; test: Antiproliferative activity against ATM-deficient human OVCAR-3 cells assessed as reduction in cell viability incubated for 72 hrs by MTT assay; assay type: functional, cell-based; details: dose 0.001-100 µM, DDE = dose-dependent effect
[6] = tested on: LoVo; test: Antiproliferative activity against ATM-deficient human LoVo cells assessed as reduction in cell viability incubated for 72 hrs by MTT assay; assay type: functional, cell-based; details: dose 0.001-100 µM, DDE = dose-dependent effect
[7] = tested on: HT-29; test: Antiproliferative activity against human HT-29 cells assessed as reduction in cell viability incubated for 72 hrs in presence of AZD1390 by MTT assay; assay type: functional, cell-based; details: HT-29, 72 h
[8] = tested on: LoVo; test: Induction of apoptosis in human LoVo cells deficient in ATM assessed as viable cells at 0.3 uM measured after 24 hrs by Annexin V-FITC/Propidium iodide staining based flow cytometry analysis (reference value: 91.64%); assay type: functional; details: read-out: Activity
[9] = tested on: LoVo; test: Induction of apoptosis in human LoVo cells deficient in ATM assessed as early apoptotic cells at 1 uM measured after 24 hrs by Annexin V-FITC/Propidium iodide staining based flow cytometry analysis (reference value: 4.20%); assay type: functional
[10] = tested on: LoVo; test: Induction of apoptosis in human LoVo cells deficient in ATM assessed as late apoptotic cells at 1 uM measured after 24 hrs by Annexin V-FITC/Propidium iodide staining based flow cytometry analysis (reference value: 3.32%); assay type: functional
[11] = tested on: LoVo; test: Induction of apoptosis in human LoVo cells deficient in ATM assessed as early apoptotic cells at 3 uM measured after 24 hrs by Annexin V-FITC/Propidium iodide staining based flow cytometry analysis (reference value: 4.20%); assay type: functional
[12] = tested on: LoVo; test: Induction of apoptosis in human LoVo cells deficient in ATM assessed as viable cells at 3 uM measured after 24 hrs by Annexin V-FITC/Propidium iodide staining based flow cytometry analysis (reference value: 91.64%); assay type: functional; details: read-out: Activity
[13] = tested on: HT-29; test: Induction of apoptosis in human HT-29 cells assessed as necrotic cells at 0.3 uM measured after 48 hrs by Annexin V-FITC/Propidium iodide staining based flow cytometry analysis (reference value: 0.73%); assay type: functional
[14] = tested on: HT-29; test: Induction of apoptosis in human HT-29 cells assessed as late apoptotic cells at 0.3 uM measured after 48 hrs by Annexin V-FITC/Propidium iodide staining based FACS cytometry analysis (reference value: 0.71%); assay type: functional
[15] = tested on: HT-29; test: Induction of apoptosis in human HT-29 cells assessed as necrotic cells at 1 uM measured after 48 hrs by Annexin V-FITC/Propidium iodide staining based flow cytometry analysis (reference value: 0.73%); assay type: functional
[16] = tested on: HT-29; test: Induction of apoptosis in human HT-29 cells assessed as early apoptotic cells at 3 uM measured after 48 hrs by Annexin V-FITC/Propidium iodide staining based flow cytometry analysis (reference value: 1.55%); assay type: functional
[17] = tested on: HT-29; test: Induction of apoptosis in human HT-29 cells assessed as late apoptotic cells at 3 uM measured after 48 hrs by Annexin V-FITC/Propidium iodide staining based flow cytometry analysis (reference value: 0.71%); assay type: functional
[18] = tested on: HT-29; test: Induction of apoptosis in human HT-29 cells assessed as necrotic cells at 0.3 uM measured after 48 hrs in presence of AZD1390 by Annexin V-FITC/Propidium iodide staining based flow cytometry analysis (reference value: 0.23%); assay type: functional
[19] = tested on: HT-29; test: Induction of apoptosis in human HT-29 cells assessed as necrotic cells at 3 uM measured after 48 hrs in presence of AZD1390 by Annexin V-FITC/Propidium iodide staining based flow cytometry analysis (reference value: 0.23%); assay type: functional
[20] = tested on: HT-29; test: Induction of apoptosis in human HT-29 cells assessed as late apoptotic cells at 3 uM measured after 48 hrs in presence of AZD1390 by Annexin V-FITC/Propidium iodide staining based flow cytometry analysis (reference value: 0.63%); assay type: functional
[21] = Tmax in Sprague-Dawley rat at 10 mg/kg, po measured at 0.083 to 24 hrs by LC-MS/MS method; assay type: ADME, organism-based; details: in vivo, time 0.083-24 hrs
[22] = Cmax in Sprague-Dawley rat at 5 mg/kg, iv measured at 0.083 to 24 hrs by LC-MS/MS method; assay type: ADME, organism-based; parameters: dose 5 mg/kg, time 0.083-24 hrs, route iv; details: in vivo
[23] = Clearance in Sprague-Dawley in rat at 5 mg/kg, iv measured at 0.083 to 24 hrs by LC-MS/MS method; assay type: ADME, organism-based; details: in vivo, time 0.083-24 hrs
[24] = Volume of distribution at steady state in Sprague-Dawley rat at 5 mg/kg, iv measured at 0.083 to 24 hrs by LC-MS/MS method; assay type: ADME, organism-based; details: in vivo, time 0.083-24 hrs, read-out: Vdss
[25] = Oral bioavailability in Sprague-Dawley rat at 10 mg/kg measured at 0.083 to 24 hrs by LC-MS/MS method; assay type: ADME, organism-based; details: in vivo, time 0.083-24 hrs
[26] = tested on: LoVo; test: Antitumor activity against human LoVo cells xenografted in NOD/SCID mouse assessed as tumor growth inhibition at 50 mg/kg, po BID for 30 days measured every 2 to 3 days; assay type: functional; details: 720 h, time 30 day, read-out: TGI
[27] = Toxicity in NOD/SCID mouse xenografted with human LoVo cells assessed as body weight loss at 50 to 100 mg/kg, po administered bid for 30 days; assay type: organism-based; details: in vivo, 720 h, dose 50-100 mg/kg, time 30 day
[28] = Toxicity in NOD/SCID mouse xenografted with human LoVo cells assessed as damage in heart at 50 to 100 mg/kg, po administered bid for 30 days measured after 2 hrs post last dose by H and E staining method; assay type: organism-based; details: in vivo, 720 h, dose 50-100 mg/kg, time 30 day
[29] = Toxicity in NOD/SCID mouse xenografted with human LoVo cells assessed as damage in kidney at 50 to 100 mg/kg, po administered bid for 30 days measured after 2 hrs post last dose by H and E staining method; assay type: organism-based; details: in vivo, 720 h, dose 50-100 mg/kg, time 30 day
[30] = target: Serine-protein kinase ATM (Homo sapiens) (UniProt Q13315); test: Activation of ATM signaling in human HT-29 cells proficient in ATM at 1 uM measured after 3 days by immunofluorescence assay; assay type: cell-based; details: filed as activator, time 3.0 day
[31] = target: Serine/threonine-protein kinase ATR (Homo sapiens, UniProt Q13535); test: In vivo inhibition of ATR in human LoVo cells xenografted in NOD/SCID mouse assessed as inhibition of Chk1 phosphorylation at 50 to 100 mg/kg, po administered twice a day for 30 days by Western blot analysis; details: dose 50-100 mg/kg, time 30.0 day

Sequence of Serine-protein kinase ATM (Homo sapiens) (Q13315 whole entry): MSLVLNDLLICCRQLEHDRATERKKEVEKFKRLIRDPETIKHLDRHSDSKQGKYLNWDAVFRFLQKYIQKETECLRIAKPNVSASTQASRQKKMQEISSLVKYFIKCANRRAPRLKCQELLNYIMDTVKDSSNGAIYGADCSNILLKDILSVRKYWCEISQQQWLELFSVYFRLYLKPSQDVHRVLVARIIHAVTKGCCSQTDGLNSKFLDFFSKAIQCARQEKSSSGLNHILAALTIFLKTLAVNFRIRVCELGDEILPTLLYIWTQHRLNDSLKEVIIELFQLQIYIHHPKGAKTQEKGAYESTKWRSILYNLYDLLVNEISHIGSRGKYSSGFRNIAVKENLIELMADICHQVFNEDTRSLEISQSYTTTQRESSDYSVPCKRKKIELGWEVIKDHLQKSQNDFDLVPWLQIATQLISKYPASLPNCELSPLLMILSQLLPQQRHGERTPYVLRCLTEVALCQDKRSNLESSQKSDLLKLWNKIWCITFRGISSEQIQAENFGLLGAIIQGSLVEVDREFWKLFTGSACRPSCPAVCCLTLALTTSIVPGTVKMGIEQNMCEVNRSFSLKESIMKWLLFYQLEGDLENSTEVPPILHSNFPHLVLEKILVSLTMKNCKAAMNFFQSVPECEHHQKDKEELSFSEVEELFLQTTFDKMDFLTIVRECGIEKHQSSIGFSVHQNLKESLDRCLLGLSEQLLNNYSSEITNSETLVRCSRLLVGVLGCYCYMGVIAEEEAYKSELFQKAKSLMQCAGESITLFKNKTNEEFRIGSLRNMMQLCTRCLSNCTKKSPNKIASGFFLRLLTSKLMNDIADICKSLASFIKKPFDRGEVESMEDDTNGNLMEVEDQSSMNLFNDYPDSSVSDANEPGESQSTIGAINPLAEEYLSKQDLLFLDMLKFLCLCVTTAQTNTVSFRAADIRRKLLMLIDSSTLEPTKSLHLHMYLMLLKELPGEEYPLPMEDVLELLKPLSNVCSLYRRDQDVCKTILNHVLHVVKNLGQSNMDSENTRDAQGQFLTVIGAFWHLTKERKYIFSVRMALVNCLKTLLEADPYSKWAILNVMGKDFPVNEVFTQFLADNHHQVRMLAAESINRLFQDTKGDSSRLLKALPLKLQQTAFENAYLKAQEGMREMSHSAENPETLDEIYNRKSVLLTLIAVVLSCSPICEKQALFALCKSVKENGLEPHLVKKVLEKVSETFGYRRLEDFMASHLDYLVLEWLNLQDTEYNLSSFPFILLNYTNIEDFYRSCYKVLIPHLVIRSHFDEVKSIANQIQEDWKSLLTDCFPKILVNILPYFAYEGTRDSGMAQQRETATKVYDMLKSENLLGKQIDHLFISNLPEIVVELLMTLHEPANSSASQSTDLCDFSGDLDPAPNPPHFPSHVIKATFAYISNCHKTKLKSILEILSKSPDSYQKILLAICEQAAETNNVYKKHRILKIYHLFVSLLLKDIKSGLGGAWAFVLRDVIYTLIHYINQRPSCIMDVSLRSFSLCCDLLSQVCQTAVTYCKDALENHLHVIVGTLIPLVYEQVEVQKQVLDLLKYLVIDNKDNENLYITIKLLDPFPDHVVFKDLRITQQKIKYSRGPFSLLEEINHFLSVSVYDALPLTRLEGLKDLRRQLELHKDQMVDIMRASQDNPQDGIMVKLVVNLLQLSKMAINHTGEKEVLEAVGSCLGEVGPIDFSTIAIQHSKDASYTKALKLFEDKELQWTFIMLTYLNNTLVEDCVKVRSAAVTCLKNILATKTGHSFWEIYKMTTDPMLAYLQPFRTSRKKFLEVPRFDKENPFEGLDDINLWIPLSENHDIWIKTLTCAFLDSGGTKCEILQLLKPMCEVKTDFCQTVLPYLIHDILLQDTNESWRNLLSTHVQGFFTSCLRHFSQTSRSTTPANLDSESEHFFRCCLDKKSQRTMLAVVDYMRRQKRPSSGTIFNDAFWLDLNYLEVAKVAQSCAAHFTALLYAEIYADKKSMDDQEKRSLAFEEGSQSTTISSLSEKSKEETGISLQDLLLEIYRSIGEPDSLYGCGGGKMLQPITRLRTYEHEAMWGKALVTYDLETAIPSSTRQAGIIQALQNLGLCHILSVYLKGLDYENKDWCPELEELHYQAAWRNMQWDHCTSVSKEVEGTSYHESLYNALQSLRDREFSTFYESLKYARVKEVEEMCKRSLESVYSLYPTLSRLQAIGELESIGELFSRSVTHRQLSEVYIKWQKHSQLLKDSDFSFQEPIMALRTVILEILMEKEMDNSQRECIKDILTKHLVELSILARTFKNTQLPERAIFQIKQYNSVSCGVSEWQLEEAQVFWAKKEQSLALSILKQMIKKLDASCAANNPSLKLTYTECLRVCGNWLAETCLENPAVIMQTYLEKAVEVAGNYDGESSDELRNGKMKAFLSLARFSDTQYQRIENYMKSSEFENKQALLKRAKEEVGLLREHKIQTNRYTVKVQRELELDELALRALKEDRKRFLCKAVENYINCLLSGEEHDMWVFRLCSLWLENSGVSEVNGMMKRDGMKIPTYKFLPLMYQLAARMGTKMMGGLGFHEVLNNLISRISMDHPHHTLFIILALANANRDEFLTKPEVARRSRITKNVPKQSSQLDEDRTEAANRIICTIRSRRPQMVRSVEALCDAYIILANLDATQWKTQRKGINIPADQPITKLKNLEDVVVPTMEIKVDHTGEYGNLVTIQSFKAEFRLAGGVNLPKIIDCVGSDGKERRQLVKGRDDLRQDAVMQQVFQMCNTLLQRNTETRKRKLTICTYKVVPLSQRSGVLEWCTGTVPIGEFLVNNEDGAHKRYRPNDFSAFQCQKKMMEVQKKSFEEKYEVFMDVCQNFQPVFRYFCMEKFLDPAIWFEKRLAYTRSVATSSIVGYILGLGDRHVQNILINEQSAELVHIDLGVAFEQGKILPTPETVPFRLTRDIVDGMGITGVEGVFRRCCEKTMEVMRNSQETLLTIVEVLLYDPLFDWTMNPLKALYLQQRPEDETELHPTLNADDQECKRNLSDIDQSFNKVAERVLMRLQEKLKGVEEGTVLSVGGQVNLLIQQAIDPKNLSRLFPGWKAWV

With `C[C@@H]1COCCN1c1nc(-c2cccc3[nH]ccc23)nc2ccc(-c3ccnn3C)cc12` the Activity [1] was 7.45%, the Activity [2] was “Dde” and the Activity [3] was “Dde”. For the same molecule, the Activity [4] was “Dde”, the Activity [5] was “Dde” and the Activity [6] was “Dde”. For the same molecule, the IC50 [7] was 439 nM, the viability at 0.3 µM [8] was 55.9% and the Activity [9] was 28.91%. For the same molecule, the Activity [10] was 20.93%, the Activity [11] was 27.07% and the viability at 3 µM [12] was 41.2%. For the same molecule, the Activity [13] was 1.65%, the Activity [14] was 1.51% and the Activity [15] was 1.06%. For the same molecule, the Activity [16] was 2.64%, the Activity [17] was 2.52% and the Activity [18] was 3.91%. The Activity [19] was 5.39%, the Activity [20] was 20.78% and the Tmax [21] was 1.67 h. The Cmax [22] was 3400 ng/mL, the clearance [23] was 26.5 mL/min/kg and the Vd [24] was 2.03 L/kg. For the same molecule, the bioavailability [25] was 43.1%, the inhibition in vivo at 50 mg/kg [26] was 50% and the Activity [27] was “Non-Toxic”. For the same molecule, the Activity [28] was “Non-Toxic”, the Activity [29] was “Non-Toxic” and the Activity [30] was “Active”. The Activity [31] was “Active”.
